“And” between values parts separate entries of the source, which are not always exact repeats. Equal values may be shown once. After the bases stand the sugars from the 5' end (letter, count) and the backbone: PS all phosphorothioate, else s phosphorothioate and o phosphodiester by linkage. Methylation of C is not given here. e = 2'-O-(2-methoxyethyl) (MOE); k = constrained ethyl (cEt); d = 2'-deoxy (DNA)

Our source for the target mRNA inhibition values is the OligoGym collection.

This series addresses KRAS. As to conditions: ASO.

For the setting “A431, 2 µM”, AAACAAATGCTAATAA (sugars k3 d10 k3, PS) came in with a target mRNA inhibition of 9%.

In turn, AAACGAGAATGGATAT (sugars k3 d10 k3, PS) came in with a target mRNA inhibition (A431, 2 µM) of 12%.

Sequence AAAGCTATTAGGAGTC (sugars k3 d10 k3, PS) displayed a target mRNA inhibition (A431, 2 µM) of 65%.

AAAGTTCACATAAAGG (sugars k3 d10 k3, PS) returned a target mRNA inhibition (A431, 2 µM) of 38%.

Regarding AAATCTTATGGTTAGG (sugars k3 d10 k3, PS), the target mRNA inhibition (A431, 2 µM) was 34%.

Turning to AAATTGTGCAATGGTG (sugars k3 d10 k3, PS), the target mRNA inhibition (A431, 2 µM) was 48%.

Regarding AAGCTATTAGGAGTCT (sugars k3 d10 k3, PS), the target mRNA inhibition (A431, 2 µM) was 65%.

Under “A431, 2 µM”, AATCCATTTATGTGAC (sugars k3 d10 k3, PS) yielded a target mRNA inhibition of 26%.

As for AATTAATCCATTTATG (sugars k3 d10 k3, PS), where the note is “A431, 2 µM”, the target mRNA inhibition is 16%.

Regarding AATTACTTATGCAGAG (sugars k3 d10 k3, PS), the target mRNA inhibition (A431, 2 µM) turned out to be 44%.

For “ACCAGTGTTAAGAGAA (sugars kkkddddddddkdkdk, PS)”, for the setting “A431, 2 µM”, the target mRNA inhibition worked out at 50%.

The sequence ACCATTCAAAGTTCAC (sugars k3 d10 k3, PS) yielded a target mRNA inhibition (A431, 2 µM) of 34%.

Sequence “ACCATTCAAAGTTCAC (sugars kdddddddddkekeke, PS)” yielded a target mRNA inhibition (A431, 2 µM) of 15%.

Turning to “ACCATTCAAAGTTCAC (sugars kkddddddddddkeke, PS)”, the target mRNA inhibition (A431, 2 µM) is 41%.

Turning to “ACCATTCAAAGTTCAC (sugars kkddddddddkekekk, PS)”, the target mRNA inhibition (A431, 2 µM) is 7%.

“ACCATTCAAAGTTCAC (sugars kkkddddddddkekek, PS)” had a target mRNA inhibition (A431, 2 µM) of 26%.

Where the note is “A431, 2 µM”, ACTTATGCAGAGAAAA (sugars k3 d10 k3, PS) yielded a target mRNA inhibition of 37%.

Under “A431, 2 µM”, ACTTCATTGTTTAAAA (sugars k3 d10 k3, PS) had a target mRNA inhibition of 0%.

AGACTTGAAAAGTGTT (sugars k3 d10 k3, PS) registered a target mRNA inhibition (A431, 2 µM) of 28%.

As to “AGATTGTGCTGAGCTT (sugars kdddddddddkekeke, PS)”, the target mRNA inhibition (A431, 2 µM) was 0%.

Where the note is “A431, 2 µM”, “AGATTGTGCTGAGCTT (sugars kkddddddddddkeke, PS)” gave a target mRNA inhibition of 40%.

Regarding “AGGAGTCTTTATAGTA (sugars kkdddddddddkekek, PS)”, for the setting “A431, 2 µM”, the target mRNA inhibition worked out at 31%.

For AGGTAAAAGCTAACAG (sugars k3 d10 k3, PS), the target mRNA inhibition is 46% (A431, 0.037 µM); 41% (A431, 2 µM); 37.3% (NCI-H460, 0.037 µM).

As to AGTCCAGTGATACTTT (sugars k3 d10 k3, PS), the target mRNA inhibition (A431, 2 µM) is 8%.

“AGTGATTAGGTCAAAT (sugars kddddddddddkekek, PS)” gave a target mRNA inhibition (A431, 2 µM) of 21%.

For “AGTGATTAGGTCAAAT (sugars kdddddddddkekeke, PS)”, the target mRNA inhibition (A431, 2 µM) worked out at 12%.

Sequence “AGTGTGACTCAGTTAA (sugars kkddddddddkekekk, PS)” registered a target mRNA inhibition (A431, 2 µM) of 47%.

The sequence ATAATAGTTTCCATTG (sugars k3 d10 k3, PS) displayed a target mRNA inhibition (A431, 2 µM) of 8%.

ATAATGGTGAATATCT (sugars k3 d10 k3, PS): the target mRNA inhibition (A431, 2 µM) turned out to be 41%.

For ATCCAGTATTAACACA (sugars k3 d10 k3, PS), the target mRNA inhibition (A431, 2 µM) was 0%.

For the sequence ATCTTATGGTTAGGGG (sugars k3 d10 k3, PS), the target mRNA inhibition (A431, 2 µM) was 20%.

ATGACTAATAGCAGTG (sugars k3 d10 k3, PS): under “A431, 2 µM”, the target mRNA inhibition was 49%.

In turn, “ATGGTGTAACATAGGT (sugars k3 d9 k3 e1, PS)” had a target mRNA inhibition (A431, 2 µM) of 47%.

ATGGTTAGGGGAATTA (sugars k3 d10 k3, PS) registered a target mRNA inhibition (A431, 2 µM) of 33%.

Sequence ATGTAAATATAGCCCC (sugars k3 d10 k3, PS) registered a target mRNA inhibition (A431, 2 µM) of 28%.

Turning to ATTGTGCTGAGCTTGA (sugars k3 d10 k3, PS), the target mRNA inhibition (A431, 2 µM) is 51%.

Under “A431, 2 µM”, CAAAGTTCACATAAAG (sugars k3 d10 k3, PS) had a target mRNA inhibition of 21%.

CAGTGTGACTCAGTTA (sugars k3 d10 k3, PS) gave a target mRNA inhibition (A431, 2 µM) of 53%.

“CAGTGTTAAGAGAACT (sugars kkddddddddkekekk, PS)” had a target mRNA inhibition (A431, 2 µM) of 35%.

Consider “CATTCAAAGTTCACAT (sugars kdddddddddkekeke, PS)”, for which the target mRNA inhibition (A431, 2 µM) worked out at 24%.

Turning to “CATTCAAAGTTCACAT (sugars kkddddddddkekekk, PS)”, the target mRNA inhibition by setting is: (A431, 0.185 µM) 5%; (A431, 0.556 µM) 7%; (A431, 1.667 µM) 9%; (A431, 2 µM) 96%; (A431, 5 µM) 16%.

As for CATTGTTTAAAAAAAA (sugars k3 d10 k3, PS), for the setting “A431, 2 µM”, the target mRNA inhibition is 0%.

With “CATTTATGTGACTAGA (sugars kddddddddddkekek, PS)”, where the note is “A431, 2 µM”, the target mRNA inhibition amounted to 24%.

Sequence “CCATTCAAAGTTCACA (sugars kkdddddddddkdkdk, PS)” returned a target mRNA inhibition (A431, 2 µM) of 31%.

The sequence “CCATTCAAAGTTCACA (sugars kkddddddddkekekk, PS)” showed a target mRNA inhibition (A431, 0.185 µM) of 0%; a target mRNA inhibition (A431, 0.556 µM) of 19%; a target mRNA inhibition (A431, 1.667 µM) of 31%; a target mRNA inhibition (A431, 2 µM) of 57%; a target mRNA inhibition (A431, 5 µM) of 39%.

For the sequence “CCATTCAAAGTTCACA (sugars kkkddddddddkekek, PS)”, the target mRNA inhibition (A431, 2 µM) came out at 39%.

With “CCATTTATGTGACTAG (sugars k3 d9 k3 e1, PS)”, the target mRNA inhibition (A431, 0.185 µM) was 28%; the target mRNA inhibition (A431, 0.556 µM) is 47%; the target mRNA inhibition (A431, 1.667 µM) stood at 53%; the target mRNA inhibition (A431, 2 µM) is 49%; the target mRNA inhibition (A431, 5 µM) was 66%.

CCATTTATGTGACTAG (sugars k3 d10 k3, PS): the target mRNA inhibition (A431, 0.125 µM) was 70% and 67%; the target mRNA inhibition (A431, 0.185 µM) was 30% and 14%; the target mRNA inhibition (A431, 0.556 µM) is 56% and 35%; the target mRNA inhibition (A431, 2 µM) is 94% and 75%; the target mRNA inhibition (A431, 5 µM) was 83% and 72%; the target mRNA inhibition (NCI-H460, 0.037 µM) was found to be 52.4%.

With “CCATTTATGTGACTAG (sugars kkddddddddddkeke, PS)”, the target mRNA inhibition (A431, 2 µM) came out at 46%.

Consider CTCTCTATGAAAGCTC (sugars k3 d10 k3, PS), for which the target mRNA inhibition (A431, 2 µM) stood at 29%.

On to CTGAATTAGTCTCCAT (sugars k3 d10 k3, PS), for which the target mRNA inhibition (A431, 2 µM) was found to be 48%.

For the sequence CTTGATTTGTCAGCAG (sugars k3 d10 k3, PS), the target mRNA inhibition (A431, 2 µM) is 51% and 44%.

For the sequence “CTTGATTTGTCAGCAG (sugars kddddddddddkekek, PS)”, the target mRNA inhibition is, setting by setting: (A431, 0.037 µM) 62%; (A431, 2 µM) 45%.

For “CTTGATTTGTCAGCAG (sugars kdddddddddkekeke, PS)”, the target mRNA inhibition is 51% (A431, 0.037 µM) and 44% (A431, 2 µM).

Regarding “CTTGATTTGTCAGCAG (sugars kkddddddddddkeke, PS)”, the target mRNA inhibition (A431, 2 µM) amounted to 54%.

For the sequence “CTTGATTTGTCAGCAG (sugars kkddddddddkekekk, PS)”, the target mRNA inhibition was 55% (A431, 0.037 µM) and 33% (A431, 2 µM).

For “CTTGATTTGTCAGCAG (sugars kkkdddddddddkeke, PS)”, the target mRNA inhibition (A431, 2 µM) turned out to be 46%.

CTTTTAATGTCACAAG (sugars k3 d10 k3, PS) registered a target mRNA inhibition (A431, 2 µM) of 9%.

Where the note is “A431, 2 µM”, GAAAAGTGTTTATGCA (sugars k3 d10 k3, PS) returned a target mRNA inhibition of 60%.

GAGAATGGATATTCAA (sugars k3 d10 k3, PS): under “A431, 2 µM”, the target mRNA inhibition was 8%.

Under “A431, 2 µM”, “GAGTCTTTATAGTAAT (sugars kdddddddddkekeke, PS)” yielded a target mRNA inhibition of 21%.

Take “GATTGTGCTGAGCTTG (sugars k3 d9 k3 e1, PS)”: the target mRNA inhibition (A431, 2 µM) stood at 30%.

As for GATTGTGCTGAGCTTG (sugars k3 d10 k3, PS), the target mRNA inhibition (A431, 2 µM) is 63%.

The sequence GCATTGCTAGTTCAAA (sugars k3 d10 k3, PS) yielded a target mRNA inhibition (A431, 2 µM) of 46%.

On to GCTATAATAATCCCCA (sugars k3 d10 k3, PS), for which the target mRNA inhibition runs as follows: (A431, 0.185 µM) 1%; (A431, 0.556 µM) 24%; (A431, 1.667 µM) 55%; (A431, 2 µM) 56%; (A431, 5 µM) 68%.

In the case of GCTGTGAAACTCTCTA (sugars k3 d10 k3, PS), where the note is “A431, 2 µM”, the target mRNA inhibition came to 42%.

For the setting “A431, 2 µM”, “GCTGTGAAACTCTCTA (sugars kddddddddddkekek, PS)” gave a target mRNA inhibition of 41%.

In the case of “GCTGTGAAACTCTCTA (sugars kkddddddddkekekk, PS)”, the target mRNA inhibition (A431, 2 µM) came out at 16%.

Under “A431, 2 µM”, GGTTAGGGGAATTACA (sugars k3 d10 k3, PS) registered a target mRNA inhibition of 26%.

Consider GTAATTAATCCATTTA (sugars k3 d10 k3, PS), for which, under “A431, 2 µM”, the target mRNA inhibition worked out at 15%.

Sequence GTAGGGCATTTCTGAT (sugars k3 d10 k3, PS) showed a target mRNA inhibition (A431, 2 µM) of 14%.

For the setting “A431, 2 µM”, GTATCTTGTTGAGCTA (sugars k3 d10 k3, PS) gave a target mRNA inhibition of 56%.

Where the note is “A431, 2 µM”, “GTCCAGTGATACTTTC (sugars kkdddddddddkekek, PS)” yielded a target mRNA inhibition of 43%.

Take “GTCCAGTGATACTTTC (sugars kkkddddddddkekek, PS)”: the target mRNA inhibition (A431, 2 µM) came to 21%.

In the case of GTGAATATCTTCAAAT (sugars k3 d10 k3, PS), the target mRNA inhibition (A431, 2 µM) worked out at 0%.

On to GTGTTTATGCAATGTT (sugars k3 d10 k3, PS), for which the target mRNA inhibition reads like this: (A431, 0.125 µM) 83%; (A431, 0.185 µM) 31%; (A431, 0.556 µM) 52%; (A431, 1.667 µM) 77%; (A431, 5 µM) 89%; (NCI-H460, 0.037 µM) 76.8%.

Regarding “GTGTTTATGCAATGTT (sugars kkddddddddddkeke, PS)”, the target mRNA inhibition is, setting by setting: (A431, 0.185 µM) 44%; (A431, 0.556 µM) 71%; (A431, 1.667 µM) 83%; (A431, 2 µM) 73%; (A431, 5 µM) 92%.
